Data taken from ChEMBL document CHEMBL4834457, “Discovery and optimization of selective RET inhibitors via scaffold hopping” (Bioorg Med Chem Lett, 2021).
pIC50: −log10 of the molar value. The source made the active and inactive calls. The calls are words filed in the database; no cut-off is given here.

Legend:
[1] = Intrinsic clearance in mouse liver microsomes; type: ADME, Microsome; settings: read-out: CLH
[2] = Intrinsic clearance in human liver microsomes; type: ADME, Microsome; settings: read-out: CLH
[3] = system: BaF3; assay: Antiproliferative activity against mouse KIF5B-RET BaF3 cells by cell based assay; type: functional
[4] = target: T1, Receptor-type tyrosine-protein kinase FLT3 (Homo sapiens, UniProt P36888); assay: Inhibition of FLT3 (unknown origin)
T1 sequence (P36888 whole entry): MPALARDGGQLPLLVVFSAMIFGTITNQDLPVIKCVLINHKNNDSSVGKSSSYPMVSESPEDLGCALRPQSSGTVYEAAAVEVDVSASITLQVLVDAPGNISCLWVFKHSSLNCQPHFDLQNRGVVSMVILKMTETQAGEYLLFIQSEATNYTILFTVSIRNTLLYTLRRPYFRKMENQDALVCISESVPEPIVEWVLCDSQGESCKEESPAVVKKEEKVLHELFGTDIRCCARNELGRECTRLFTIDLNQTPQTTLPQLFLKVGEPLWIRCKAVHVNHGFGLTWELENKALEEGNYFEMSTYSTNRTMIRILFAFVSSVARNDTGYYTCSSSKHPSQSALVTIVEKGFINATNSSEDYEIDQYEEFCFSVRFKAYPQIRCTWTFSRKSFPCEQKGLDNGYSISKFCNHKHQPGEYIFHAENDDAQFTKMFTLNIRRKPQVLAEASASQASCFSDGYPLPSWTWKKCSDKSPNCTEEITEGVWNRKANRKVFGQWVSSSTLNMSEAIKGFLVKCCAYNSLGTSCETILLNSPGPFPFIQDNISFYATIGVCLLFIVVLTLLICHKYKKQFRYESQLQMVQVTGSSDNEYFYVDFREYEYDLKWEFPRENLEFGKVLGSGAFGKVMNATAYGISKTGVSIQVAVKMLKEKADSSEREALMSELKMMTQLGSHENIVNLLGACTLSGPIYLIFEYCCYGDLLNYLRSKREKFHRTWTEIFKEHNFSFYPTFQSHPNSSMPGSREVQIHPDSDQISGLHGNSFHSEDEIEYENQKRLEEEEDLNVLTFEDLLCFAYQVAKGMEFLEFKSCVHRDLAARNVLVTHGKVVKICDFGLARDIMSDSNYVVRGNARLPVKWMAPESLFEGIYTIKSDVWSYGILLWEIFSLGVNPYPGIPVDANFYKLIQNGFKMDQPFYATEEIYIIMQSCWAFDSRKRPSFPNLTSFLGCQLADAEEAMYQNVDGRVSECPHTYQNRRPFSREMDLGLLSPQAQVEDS

[5] = system: BaF3; assay: Antitumor activity against mouse KIF5B-RET BaF3 cells xenografted in nu/nu mouse assessed as tumour growth inhibition at 10 mg/kg, po qd for 10 days; type: functional, organism-based; settings: time 10.0 day
[6] = AUC in mouse plasma at 10 mg/kg, po; type: ADME, organism-based; set-up: dose 10 mg/kg
[7] = Volume of distribution in mouse; type: ADME, organism-based; settings: in vivo
[8] = Drug level in tumor of mouse transplanted with mouse KIF5B-RET Ba/F3 cells at 10 mg/kg, po qd for 10 days measured after 8.5 hrs; type: ADME, organism-based, Neoplasm, BaF3; settings: in vivo, 240 h, time 10 day
[9] = Oral bioavailability in mouse; type: ADME, organism-based; settings: in vivo
[10] = Toxicity in mouse transplanted with mouse KIF5B-RET Ba/F3 cells assessed as change in body weight at 10 mg/kg, po […] for 10 days relative to control; type: organism-based, BaF3; settings: in vivo, 240 h, time 10 day
[11] = Clearance in mouse; type: ADME, organism-based; settings: in vivo
[12] = Drug level in plasma of mouse transplanted with mouse KIF5B-RET Ba/F3 cells at 10 mg/kg, po qd for 10 days measured after 8.5 hrs; type: ADME, organism-based, BaF3; settings: time 10 day
[13] = target: Tyrosine-protein kinase JAK2 (Homo sapiens, UniProt O60674); assay: Inhibition of JAK2 (unknown origin)
Tyrosine-protein kinase JAK2, sequence (O60674 whole entry): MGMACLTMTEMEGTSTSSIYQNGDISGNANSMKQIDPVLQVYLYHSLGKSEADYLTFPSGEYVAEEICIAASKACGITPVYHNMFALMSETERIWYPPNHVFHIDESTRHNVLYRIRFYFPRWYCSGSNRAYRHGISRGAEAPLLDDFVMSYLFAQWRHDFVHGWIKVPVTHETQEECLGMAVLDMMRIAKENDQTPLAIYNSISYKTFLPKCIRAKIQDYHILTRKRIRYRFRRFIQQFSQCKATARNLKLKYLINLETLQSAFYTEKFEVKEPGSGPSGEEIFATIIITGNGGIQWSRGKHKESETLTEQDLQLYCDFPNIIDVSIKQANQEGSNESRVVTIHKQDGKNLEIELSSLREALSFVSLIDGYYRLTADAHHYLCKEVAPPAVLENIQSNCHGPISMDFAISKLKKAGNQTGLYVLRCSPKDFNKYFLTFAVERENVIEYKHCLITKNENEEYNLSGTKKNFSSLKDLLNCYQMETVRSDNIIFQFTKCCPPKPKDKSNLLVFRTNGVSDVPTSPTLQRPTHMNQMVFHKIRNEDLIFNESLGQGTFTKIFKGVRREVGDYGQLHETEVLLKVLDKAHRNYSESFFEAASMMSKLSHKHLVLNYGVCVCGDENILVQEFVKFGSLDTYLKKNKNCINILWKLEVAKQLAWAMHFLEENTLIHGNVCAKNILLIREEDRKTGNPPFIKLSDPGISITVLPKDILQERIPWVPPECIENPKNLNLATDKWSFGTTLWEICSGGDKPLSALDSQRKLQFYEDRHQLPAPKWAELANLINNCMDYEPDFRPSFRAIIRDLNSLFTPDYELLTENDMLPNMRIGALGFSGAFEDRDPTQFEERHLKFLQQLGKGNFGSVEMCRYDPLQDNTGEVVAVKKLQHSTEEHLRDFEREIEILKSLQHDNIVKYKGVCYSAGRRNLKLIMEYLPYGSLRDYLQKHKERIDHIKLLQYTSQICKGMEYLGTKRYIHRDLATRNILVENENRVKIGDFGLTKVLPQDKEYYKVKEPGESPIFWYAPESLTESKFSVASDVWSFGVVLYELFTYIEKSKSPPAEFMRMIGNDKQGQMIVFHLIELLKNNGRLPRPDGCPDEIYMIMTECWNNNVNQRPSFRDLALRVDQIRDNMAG

[14] = system: BaF3; assay: Antitumor activity against mouse KIF5B-RET BaF3 cells xenografted in nu/nu mouse assessed as tumour growth inhibition at 20 mg/kg, po qd for 10 days; type: functional, organism-based; settings: time 10.0 day
[15] = target: Proto-oncogene tyrosine-protein kinase receptor Ret (Homo sapiens, UniProt P07949, M918T); assay: Inhibition of RET M918T mutant (unknown origin)
Proto-oncogene tyrosine-protein kinase receptor Ret (Homo sapiens, UniProt P07949, M918T), sequence (P07949 29-1114 M918T limits assumed): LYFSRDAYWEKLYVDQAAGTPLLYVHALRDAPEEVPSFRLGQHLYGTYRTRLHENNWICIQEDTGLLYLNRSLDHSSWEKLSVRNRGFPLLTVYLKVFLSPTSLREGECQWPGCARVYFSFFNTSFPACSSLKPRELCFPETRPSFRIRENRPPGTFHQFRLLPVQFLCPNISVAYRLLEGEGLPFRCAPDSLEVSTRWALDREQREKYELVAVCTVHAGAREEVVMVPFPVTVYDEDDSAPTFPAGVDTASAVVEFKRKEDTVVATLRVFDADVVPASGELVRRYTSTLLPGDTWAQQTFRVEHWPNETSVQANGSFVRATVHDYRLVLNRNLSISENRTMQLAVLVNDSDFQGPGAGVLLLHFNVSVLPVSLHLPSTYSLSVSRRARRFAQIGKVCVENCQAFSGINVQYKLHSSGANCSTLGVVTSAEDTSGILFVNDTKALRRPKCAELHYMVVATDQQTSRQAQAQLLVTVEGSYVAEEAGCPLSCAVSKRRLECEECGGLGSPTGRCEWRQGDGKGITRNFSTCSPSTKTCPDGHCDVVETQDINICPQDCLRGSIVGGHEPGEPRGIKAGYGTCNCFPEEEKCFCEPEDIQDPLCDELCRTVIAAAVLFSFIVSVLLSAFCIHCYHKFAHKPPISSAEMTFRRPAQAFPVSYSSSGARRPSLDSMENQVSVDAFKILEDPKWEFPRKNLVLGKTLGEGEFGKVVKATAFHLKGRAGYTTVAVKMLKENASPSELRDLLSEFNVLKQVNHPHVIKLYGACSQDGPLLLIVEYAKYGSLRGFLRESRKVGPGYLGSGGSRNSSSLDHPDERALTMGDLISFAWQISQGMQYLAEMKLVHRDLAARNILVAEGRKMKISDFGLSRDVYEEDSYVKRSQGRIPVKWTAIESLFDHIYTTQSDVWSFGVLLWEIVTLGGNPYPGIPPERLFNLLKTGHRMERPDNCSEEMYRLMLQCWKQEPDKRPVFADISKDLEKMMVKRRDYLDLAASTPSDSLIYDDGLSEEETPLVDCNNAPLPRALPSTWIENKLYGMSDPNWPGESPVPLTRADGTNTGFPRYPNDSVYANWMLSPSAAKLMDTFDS

[16] = target: Proto-oncogene tyrosine-protein kinase receptor Ret (Homo sapiens, UniProt P07949); assay: Inhibition of RET wild type (unknown origin)
Proto-oncogene tyrosine-protein kinase receptor Ret (Homo sapiens, UniProt P07949), sequence (P07949 whole entry): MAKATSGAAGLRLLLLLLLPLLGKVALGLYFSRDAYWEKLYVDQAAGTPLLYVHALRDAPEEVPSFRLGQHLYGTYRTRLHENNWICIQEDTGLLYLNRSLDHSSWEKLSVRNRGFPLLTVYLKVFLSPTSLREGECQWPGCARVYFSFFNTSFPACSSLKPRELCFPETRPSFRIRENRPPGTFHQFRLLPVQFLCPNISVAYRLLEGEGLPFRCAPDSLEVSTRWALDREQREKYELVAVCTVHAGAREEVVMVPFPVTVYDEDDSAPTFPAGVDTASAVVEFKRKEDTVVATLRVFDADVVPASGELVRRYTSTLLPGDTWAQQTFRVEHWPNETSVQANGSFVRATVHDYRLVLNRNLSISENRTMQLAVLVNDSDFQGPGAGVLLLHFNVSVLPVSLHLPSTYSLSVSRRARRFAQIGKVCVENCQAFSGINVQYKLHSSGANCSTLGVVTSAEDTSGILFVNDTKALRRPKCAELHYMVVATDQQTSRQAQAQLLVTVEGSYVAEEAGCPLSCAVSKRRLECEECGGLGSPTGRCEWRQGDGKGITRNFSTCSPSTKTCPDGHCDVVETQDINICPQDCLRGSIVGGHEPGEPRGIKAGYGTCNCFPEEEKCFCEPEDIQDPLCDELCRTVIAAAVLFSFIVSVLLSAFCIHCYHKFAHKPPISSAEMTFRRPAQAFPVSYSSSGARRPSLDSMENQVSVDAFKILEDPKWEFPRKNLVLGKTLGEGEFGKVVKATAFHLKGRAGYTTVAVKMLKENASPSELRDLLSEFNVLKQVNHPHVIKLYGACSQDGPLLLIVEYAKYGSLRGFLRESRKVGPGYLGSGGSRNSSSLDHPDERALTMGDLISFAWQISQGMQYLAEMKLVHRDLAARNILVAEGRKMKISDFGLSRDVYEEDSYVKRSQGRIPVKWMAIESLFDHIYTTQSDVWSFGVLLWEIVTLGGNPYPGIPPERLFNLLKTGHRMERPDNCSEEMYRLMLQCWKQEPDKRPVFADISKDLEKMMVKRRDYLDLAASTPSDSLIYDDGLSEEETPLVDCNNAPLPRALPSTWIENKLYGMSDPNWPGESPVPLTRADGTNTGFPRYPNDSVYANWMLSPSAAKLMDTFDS

[17] = Toxicity in mouse transplanted with mouse KIF5B-RET Ba/F3 cells assessed as change in body weight at 20 mg/kg, po […] for 10 days relative to control; type: organism-based, BaF3; settings: in vivo, 240 h, time 10 day
[18] = target: Proto-oncogene tyrosine-protein kinase receptor Ret (Homo sapiens, UniProt P07949, V804M); assay: Inhibition of RET V804M mutant (unknown origin)
Proto-oncogene tyrosine-protein kinase receptor Ret (Homo sapiens, UniProt P07949, V804M), sequence (P07949 29-1114 V804M limits assumed): as the sequence (P07949 29-1114 M918T limits assumed) above, with V776M, T890M counted along it

CLint scaled [1] | CLint scaled [2] | pIC50 [3] | pIC50 [4] | AUC [6] | Vd [7] | Drug uptake [8] | bioavailability [9] | clearance [11] | concentration at 240 h [12] | pIC50 [13] | pIC50 [15] | pIC50 [16] | pIC50 [18] | Structure (SMILES) | Activity [5] | Activity [10] | Activity [14] | Activity [17]
136 mL/min/kg | 31.3 mL/min/kg | 7.72 |  |  |  |  |  |  |  |  |  |  |  | Cc1cc(Nc2cc(C)[nH]n2)nc(N2CCC3(CCCN([C@@H](C)c4cnc(-n5cc(F)cn5)cn4)C3=O)CC2)n1 |  |  |  | 
< 38 mL/min/kg | < 8.6 mL/min/kg | 7.77 | 8.19 | 46.1 µM·h | 0.7 L/kg | 2522 nmol/kg | 77.2% | 5 mL/min/kg | 6.32 µM | 8.70 |  |  |  | CO[C@]1(C(=O)N[C@@H](C)c2ccc(-n3cc(F)cn3)nc2)CC[C@H](c2nc(C)cc(Nc3cc(C)[nH]n3)n2)CC1 [PRALSETINIB] | Active | Non-Toxic |  | 
155 mL/min/kg | 36.4 mL/min/kg | 7.85 |  |  |  |  |  |  |  |  |  |  |  | Cc1cc(Nc2cc(C)[nH]n2)nc(N2CCC3(CCCN([C@@H](C)c4ccc(-n5cc(F)cn5)nc4)C3=O)CC2)n1 |  |  |  | 
< 38 mL/min/kg | < 8.6 mL/min/kg |  |  |  |  |  |  |  |  |  |  |  |  | Cc1cc(Nc2cc(C)[nH]n2)nc(C2CCC3(CCCN([C@@H](C)c4ccc(-n5cc(F)cn5)nc4)C3=O)CC2)n1 (some centres undefined) |  |  |  | 
79 mL/min/kg | 24.1 mL/min/kg | 7.72 | 7.51 | 27.7 µM·h | 1.5 L/kg | 8100 nmol/kg | 59.7% | 6.6 mL/min/kg | 3.94 µM | 8.36 | 9.05 | 8.89 | 8.71 | Cc1cc(Nc2cc(C)[nH]n2)nc(N2CCC3(CC2)OCCN([C@@H](C)c2ccc(-n4cc(F)cn4)nc2)C3=O)n1 | Active | Non-Toxic | Active | Non-Toxic
